# Measured values reported in patent US9486422B2, “Small molecule inhibitors of Mcl-1 and the uses of thereof” (THE REGENTS OF THE UNIVERSITY OF MICHIGAN, priority 2011, dated 2016).
# Read-outs that look alike come from different tables or passages of the source.
# Columns and labels:
# [1] = tested on: activated Bax in Panc-1 cells; experiment: Bax activation, 6A7 anti-Bax immunostaining, Panc-1; format: cell-based, human; conditions: 24 h
# Method: Cells mounted on glass slides were permeabilized with PBS containing 0.3% Triton X-100, and blocked with 1% bovine serum albumin in PBS for 30 min at room temperature, followed with overnight incubation with anti-Bak 6A7 (Calbiochem) at 4° C. After thorough washing of the sections in PBS, a secondary antibody labeled with DyLight 488 (Thermo Scientific) was added and incubated for 2 h at room temperature. Nuclei were visualized with DAPI. Samples were analyzed with a FluoView 500 Confocal Laser Scanning Microscope (Olympus).
# Bcl-xL = Bcl-xL (Homo sapiens, UniProt Q07817, DEL45-85); experiment: FP-based binding assay, Bcl-xL
# Chain of Bcl-xL (Q07817 other isoform, or with tags, fused parts or gaps DEL45-85): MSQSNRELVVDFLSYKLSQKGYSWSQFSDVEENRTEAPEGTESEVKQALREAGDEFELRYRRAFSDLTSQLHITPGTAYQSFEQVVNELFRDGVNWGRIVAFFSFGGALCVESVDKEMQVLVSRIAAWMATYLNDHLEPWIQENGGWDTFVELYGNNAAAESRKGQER
# Panc-1 cells = experiment: Induction of apoptosis, Annexin V/PI, Panc-1; format: cell-based, human
# Method: An Annexin-V-FLUOS/Propidium iodide staining kit and ELISA detection kit (Roche Applied Science) were used to detect apoptosis in PC cells. Cells were treated with Mcl-1 inhibitors for different time points, harvested, washed with PBS and apoptosis was quantified according to manufacturer's protocol.
# [2] = tested on: patient bone marrow derived plasma cells; experiment: Apoptosis (Annexin V-FITC/PI), multiple myeloma patient cells; format: cell-based, human
# Method: Blood or bone marrow samples from multiple myeloma patients was obtained from treated or untreated patients after informed consent. Plasma cells were obtained after gradient density centrifugation using Ficoll Hypaque. Some samples were purified for […] population using flow cytometry. In all cases, purity of the plasma cells was higher than 90%, as assessed by morphology.
# MM cell lines were cultured in six-well plates and treated as described above. At the end of the treatment the cells were washed and resuspended in annexin binding buffer (10 mM 4-(2-hydroxyethyl)-1-piperazineethanesulfonic acid pH 7.4, 140 mM NaCl, 2.5 mM CaCl2) after which Annexin V-FITC and Propodium Iodide solution was added (5 micro L each) according to manufactures protocol (BD Bioscences). Flow cytometry was performed using a FACSCanto (BD Biosciences, San Jose, Calif., USA).
# A1/Bfl-1 = target: T1, A1/Bfl-1 (Homo sapiens, UniProt Q16548); experiment: FP-based binding assay, A1/Bfl-1
# T1 sequence (Q16548 1-151): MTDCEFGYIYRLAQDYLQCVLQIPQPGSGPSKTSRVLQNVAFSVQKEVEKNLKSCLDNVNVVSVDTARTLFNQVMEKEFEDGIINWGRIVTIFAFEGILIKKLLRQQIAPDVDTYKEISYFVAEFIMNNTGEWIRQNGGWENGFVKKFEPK
# MiaPaCa-2 = experiment: Cell growth inhibition (WST-8), MiaPaCa-2; format: cell-based; conditions: Homo sapiens, MIA PaCa-2, 96 h; 4 days treatment
# Method: Human PC cell lines AsPC-1, BxPC-3 and Capan-2 were cultured in RPMI 1640 medium, while Panc-1 and MiaPaCa were cultured in DMEM medium (Life Technologies), all supplemented with 10% fetal bovine serum (Thermo Scientific HyClone). The rate of cell growth inhibition after treatment with increasing concentrations of the tested compounds was determined by WST-8 assay as described in the manufacturers protocol (Dojindo Molecular Technologies Inc.).
# Mcl-1 = Mcl-1 (Homo sapiens, UniProt Q07820); experiment: FP-based binding assay, Mcl-1
# Chain of Mcl-1 (Q07820 171-327): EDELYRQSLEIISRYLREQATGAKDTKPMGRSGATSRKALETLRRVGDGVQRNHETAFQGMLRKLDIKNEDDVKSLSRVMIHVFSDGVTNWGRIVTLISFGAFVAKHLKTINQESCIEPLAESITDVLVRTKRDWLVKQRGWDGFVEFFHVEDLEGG
# [3] = Metabolic stability assay, liver microsomes; format: in vitro ADME, mice; conditions: mouse, pooled mouse liver microsomes; 1 μM compound, 1.2 mg/ml microsomes, 37° C.
# Method: Metabolic stability of UMI-77 was determined using the pooled mice liver microsomes (XenoTech, LLC). The conditions of the assay and quantification of UMI-77 in different time points are provided.
# The β-NADPH (Sigma-Aldrich) was dissolved in 0.1 M phosphate buffer containing 3.3 mM MgCl2 right before use. The pooled mice liver microsomes (XenoTech, LLC) were diluted with 0.1 M phosphate buffer containing 3.3 mM MgCl2, followed by adding the reduced β-NADPH solution. After initiating the enzymes by adding β-NADPH, the mixture was incubated at 37° C. for […] The tested compound UMI-77 was added into the mixture and incubated at 37° C. The final concentrations of the compound, microsomes, β-NADPH, phosphate buffer and MgCl2 were 1 μM, 1.2 mg/ml, 1 mM, 0.1 M, and 3.3 mM, respectively. An aliquot of 40 μl of mixture was collected at 0, 5, 10, 15, 30, 45 and 60 min and the reaction was stopped immediately by adding 120 μl of ice-cold acetonitrile containing an internal standard (100 mg/mL). The incubation solution was centrifuged at 14000 rpm for 5 minutes to precipitate protein. The UMI-77 concentration was determined by LC/MS/MS (Agilent 1200 HPLC system, Agilent Technologies and QTRAP 3200 mass spectrometer, Applied Biosystems/MDS Sciex). UMI-77 was detected under negative ionization mode and the multiple reaction monitoring (MRM) ion transition was m/z 468.1→221.0.
# [4] = target: T2, cellular Mcl-1 protein (2LMP cell lysate) (Homo sapiens, UniProt Q07820); experiment: Biotin-streptavidin pull-down with biotin-labeled Noxa BH3 peptide; format: binding
# T2 construct: endogenous in cells; host or cells: 2LMP (subclone of MDA-MB-231) cell lysate
# T2 sequence (Q07820 whole entry): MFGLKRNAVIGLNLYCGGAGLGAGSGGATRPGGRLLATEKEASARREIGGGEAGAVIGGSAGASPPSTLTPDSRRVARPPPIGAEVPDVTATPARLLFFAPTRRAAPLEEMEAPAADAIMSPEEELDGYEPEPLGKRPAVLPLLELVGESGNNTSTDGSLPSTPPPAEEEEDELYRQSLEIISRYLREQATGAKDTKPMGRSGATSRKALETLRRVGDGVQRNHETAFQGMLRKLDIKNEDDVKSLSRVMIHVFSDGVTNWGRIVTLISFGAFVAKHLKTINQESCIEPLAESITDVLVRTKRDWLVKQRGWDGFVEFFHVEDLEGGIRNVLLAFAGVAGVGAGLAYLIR
# Method: Human breast cancer 2LMP cells, a subclone of the MDA-MB-231 cell line, were lysed in CHAPS buffer (10 mM HEPES (pH 7.4), 2.5 mM EDTA, 150 mM NaCl, 1.0% CHAP). Pre-cleared cell lysates were incubated with different concentrations of tested compounds, followed by incubation with biotinylated Noxa BH3 peptide (residues 18-43) and streptavidin-agarose beads to pull-down Mcl-1 protein bound to Noxa peptide. Beads were washed with CHAPS buffer, and Mcl-1 protein was eluted by boiling in SDS-PAGE sample buffer and analyzed by Western blotting using Mcl-1 antibody (Santa Cruz). DMSO alone was used as a control for nonspecific pull-down.
smiles,measurement,setting,value
"O=C(O)CSc1cc(NS(=O)(=O)c2ccc(Br)cc2)c2ccccc2c1O [Compound 9, 2-((4-(4-Bromophenylsulfonamido)-1-hydroxynaphthalen-2-yl)thio)acetic acid]",concentration from which activated Bax increases,[1],≥ 5 µM
same,fold lower affinity to Bcl-xL than to Mcl-1 (selectivity),Bcl-xL,more than 50 fold
same,Ki,Bcl-xL; read-out: Bcl-xL Ki ± SD,33 ± 4.33 µM
same,early apoptotic cells,"Panc-1 cells; 5 μM, 24 hours",15%
same,early apoptotic cells,"Panc-1 cells; 5 μM, 48 hours",21%
same,early apoptotic cells,"Panc-1 cells; 10 μM, 24 hours",21%
same,early apoptotic cells,"Panc-1 cells; 10 μM, 48 hours",49%
same,"apoptotic cells, early event","[2]; Pt 90620372, treated",10.1%
same,"apoptotic cells, late event","[2]; Pt 90620372, treated",19.8%
same,"apoptotic cells, early events","[2]; Pt 957034714, treated",32.9%
same,"apoptotic cells, late events","[2]; Pt 957034714, treated",62.9%
same,"apoptotic cells, early events","[2]; Pt 957060476, treated",13.3%
same,"apoptotic cells, late events","[2]; Pt 957060476, treated",26.6%
same,fold lower affinity to A1/Bfl-1 than to Mcl-1 (selectivity),A1/Bfl-1,11 fold
same,Ki,A1/Bfl-1; read-out: A1/Bfl-1 Ki ± SD,5.33 ± 1 µM
same,IC50,MiaPaCa-2,12.5 ± 1.01 µM
same,fold improved binding to Mcl-1 compared to 2,Mcl-1,7 fold
same,Ki,"Mcl-1; FP and SPR based binding studies, read-out: Ki to Mcl-1",0.49 µM
same,IC50,"Mcl-1; competitive FP, Flu-BID 2 nM, Mcl-1 90 nM, read-out: Mcl-1 IC50 ± SD",1.87 ± 0.22 µM
same,Ki,"Mcl-1; competitive FP, Ki calculated from IC50, read-out: Mcl-1 Ki ± SD",0.49 ± 0.06 µM
same,half-life at 1 μM,[3],45 min
same,concentration from which BL-Noxa/cellular Mcl-1 interaction is blocked,[4],≥ 10 µM
same,"disruption of BL-Noxa/cellular Mcl-1 interaction, result in words",[4],effectively disrupted
